Results reported in ChEMBL document CHEMBL4428133, “Tyrosyl-DNA phosphodiesterase inhibitors: Progress and potential” (Bioorg Med Chem, 2016).

Assays:
[1] = biological target: T1, Tyrosyl-DNA phosphodiesterase 2 (Homo sapiens, UniProt O95551); assay: Inhibition of human N-terminal His-tagged TDP2 expressed in Escherichia coli JM109(DE3) using 5'-Y-TCCGTTGAAGCCTGCTTT-3' as substrate incubated for 60 mins by microplate reader analysis
T1 sequence (O95551 whole entry): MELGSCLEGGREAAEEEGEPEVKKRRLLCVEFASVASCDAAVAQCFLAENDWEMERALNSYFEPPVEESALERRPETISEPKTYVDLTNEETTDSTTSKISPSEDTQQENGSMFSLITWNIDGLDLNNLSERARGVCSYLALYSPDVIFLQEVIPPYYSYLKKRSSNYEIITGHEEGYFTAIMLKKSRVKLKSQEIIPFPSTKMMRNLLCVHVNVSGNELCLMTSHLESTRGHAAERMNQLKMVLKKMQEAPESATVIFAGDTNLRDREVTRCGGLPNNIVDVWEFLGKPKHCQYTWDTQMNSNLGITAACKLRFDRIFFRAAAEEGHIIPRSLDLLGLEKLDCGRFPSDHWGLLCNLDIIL

[2] = Non-competitive inhibition of human 7721 cell membrane-derived phospholipase D using phosphatidylcholine as substrate preincubated for 10 mins followed by substrate addition in presence of PIP2 by Cornish-Bowden plot analysis
[3] = biological target: T2, Tyrosyl-DNA phosphodiesterase 1 (Homo sapiens, UniProt Q9NUW8); assay: Inhibition of recombinant TDP1 (unknown origin) using 5'-32P-labeled N14Y DNA substrate incubated for 15 mins by PAGE analysis
[4] = biological target: T1, Tyrosyl-DNA phosphodiesterase 2; assay: Inhibition of human recombinant TDP2 using 18-mer single stranded 5'-32P-labeled cordycepin DNA substrate incubated for 15 mins by PAGE analysis
[5] = biological target: T1, Tyrosyl-DNA phosphodiesterase 2; assay: Inhibition of TDP2 (unknown origin)
[6] = biological target: T2, Tyrosyl-DNA phosphodiesterase 1; assay: Inhibition of N-terminal His-tagged TDP1 (unknown origin) expressed in Escherichia coli BL21(DE3) using 5'-6-FAM-AGGATCTAAAAGACTT-3BHQ-3' as substrate preincubated for 30 mins followed by substrate addition by fluorescence assay
[7] = test system: MCF7; assay: Growth inhibition of human MCF7 cells at 10 uM after 96 hrs in presence of camptothecin by MTT assay relative to camptothecin alone; type: functional; settings: MCF7, 96 h, read-out: GI
[8] = biological target: T3, DNA topoisomerase 1 (Homo sapiens, UniProt P11387); assay: Inhibition of topoisomerase-1 (unknown origin) using pBR 322 DNA as substrate
T3 sequence (P11387 whole entry): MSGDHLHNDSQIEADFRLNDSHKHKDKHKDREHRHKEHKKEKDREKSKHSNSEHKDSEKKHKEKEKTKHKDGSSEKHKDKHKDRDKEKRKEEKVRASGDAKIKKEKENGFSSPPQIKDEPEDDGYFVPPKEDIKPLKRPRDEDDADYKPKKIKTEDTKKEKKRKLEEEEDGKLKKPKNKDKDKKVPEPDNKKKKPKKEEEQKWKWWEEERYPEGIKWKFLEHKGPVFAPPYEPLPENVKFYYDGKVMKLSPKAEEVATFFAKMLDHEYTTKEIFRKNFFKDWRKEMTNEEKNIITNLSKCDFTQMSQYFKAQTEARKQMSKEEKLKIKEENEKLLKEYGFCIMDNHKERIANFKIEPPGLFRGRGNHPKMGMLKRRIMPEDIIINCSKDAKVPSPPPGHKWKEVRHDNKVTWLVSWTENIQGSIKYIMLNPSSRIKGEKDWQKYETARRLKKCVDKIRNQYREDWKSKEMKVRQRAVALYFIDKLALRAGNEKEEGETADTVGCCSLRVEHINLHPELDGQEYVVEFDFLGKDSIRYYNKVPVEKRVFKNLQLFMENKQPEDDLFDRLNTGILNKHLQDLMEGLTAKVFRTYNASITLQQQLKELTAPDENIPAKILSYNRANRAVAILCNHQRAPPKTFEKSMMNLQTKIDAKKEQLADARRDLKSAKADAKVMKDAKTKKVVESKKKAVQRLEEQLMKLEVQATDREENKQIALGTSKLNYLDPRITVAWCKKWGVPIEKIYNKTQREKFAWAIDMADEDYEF

[9] = biological target: T2, Tyrosyl-DNA phosphodiesterase 1; assay: Inhibition of human N-terminal His-tagged TDP1 expressed in Escherichia coli BL21 using [32P]-D14Y duplex DNA as substrate incubated for 20 mins by PAGE analysis
[10] = Inhibition of human Jurkat cell membrane-derived protein tyrosine phosphatase using o-phospho-L-tyrosine as substrate incubated for 15 mins by malachite green staining based assay
[11] = biological target: T2, Tyrosyl-DNA phosphodiesterase 1; assay: Inhibition of TDP1 (unknown origin) using 14-mer duplex oligonucleotide [32P]-D14Y as substrate incubated for 20 mins by PAGE analysis
[12] = biological target: T2, Tyrosyl-DNA phosphodiesterase 1; assay: Inhibition of recombinant TDP1 (unknown origin) using 5'-32P-labeled N14Y DNA substrate incubated for 20 mins by PAGE analysis

T2 sequence (Q9NUW8 whole entry): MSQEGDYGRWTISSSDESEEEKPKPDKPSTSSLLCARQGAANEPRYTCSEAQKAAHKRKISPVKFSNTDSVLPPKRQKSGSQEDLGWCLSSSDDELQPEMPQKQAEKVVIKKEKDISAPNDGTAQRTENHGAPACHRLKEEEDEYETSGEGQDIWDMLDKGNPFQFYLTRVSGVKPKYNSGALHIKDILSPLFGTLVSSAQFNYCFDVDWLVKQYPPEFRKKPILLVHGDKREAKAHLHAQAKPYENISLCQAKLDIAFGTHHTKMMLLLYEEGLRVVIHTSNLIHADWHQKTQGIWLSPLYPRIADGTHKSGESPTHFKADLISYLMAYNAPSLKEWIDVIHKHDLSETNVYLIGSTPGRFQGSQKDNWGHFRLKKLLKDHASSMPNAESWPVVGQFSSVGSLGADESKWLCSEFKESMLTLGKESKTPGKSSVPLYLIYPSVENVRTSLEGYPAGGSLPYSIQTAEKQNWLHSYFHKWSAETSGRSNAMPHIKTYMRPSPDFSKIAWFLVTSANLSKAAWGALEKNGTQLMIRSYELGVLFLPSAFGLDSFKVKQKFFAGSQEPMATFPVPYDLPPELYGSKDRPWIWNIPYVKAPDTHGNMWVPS

Cc1cc2nc3c(=O)[nH]c(=O)nc-3n(C)c2cc1C=O
EC50 [1]: 3.5 µM

NCC1O[C@H](O[C@H]2[C@@H](O)[C@H](O[C@@H]3[C@@H](O)[C@H](N)C[C@H](N)[C@H]3O[C@H]3O[C@H](CN)[C@@H](O)[C@H](O)[C@H]3N)O[C@@H]2CO)[C@H](N)[C@@H](O)[C@@H]1O (some centres undefined)
Ki [2]: 8700 µM

COc1ccc2c(c1)Oc1nc(-c3ccc(C)cc3)nc(SCC(=O)Nc3ccc(C(=O)O)cc3)c1C2
IC50 [3]: 12.1 µM

CCn1cc(C(=O)O)c(=O)c2cc(F)c(N3CCN(CNc4ccc(S(=O)(=O)Nc5nc(C)cc(C)n5)cc4)CC3)cc21
IC50 [3]: 0.005 µM

O=C(O)c1ccc(-c2ccc(/C=C3/NC(=O)N(Cc4ccccc4F)C3=O)o2)cc1
IC50 [3]: 7.7 µM
IC50 [4]: 32 µM

NC1=CC(N)=C2C=CC(=O)N=C2C1=O
IC50 [5]: 2 µM

O=C1NC(=S)NC(=O)C1=Cc1ccco1
IC50 [6]: 0.71 µM
inhibition of growth at 10 µM [7]: 25%

O=C1c2c(c3c4cccc(O)c4n([C@@H]4O[C@H](CO)[C@@H](O)[C@H](O)[C@H]4O)c3c3[nH]c4c(O)cccc4c23)C(=O)N1NC(CO)CO
EC50 [8]: 0.58 µM

COc1c(N2CCN(CNc3ccc(S(=O)(=O)Nc4nc(C)cc(C)n4)cc3)C(C)C2)c(F)cc2c(=O)c(C(=O)O)cn(C3CC3)c12 (centres undefined)
IC50 [3]: 0.022 µM

CCC[C@@H]1C[C@@H](C(=O)N[C@@H]([C@H]2O[C@H](SC)[C@H](OP(=O)(O)O)[C@@H](O)[C@H]2O)[C@H](C)Cl)N(C)C1 [CLINDAMYCIN PHOSPHATE]
IC50 [9]: 9100 µM

CN(N=O)c1cc(O)ccc1O [DEPHOSTATIN]
IC50 [10]: 7.7 µM

NC[C@@H]1O[C@H](O[C@H]2[C@@H](O)[C@H](O[C@@H]3[C@@H](O)[C@H](N)C[C@H](N)[C@H]3O[C@H]3O[C@H](CO)[C@@H](O)C[C@H]3N)O[C@@H]2CO)[C@H](N)[C@@H](O)[C@@H]1O[C@H]1O[C@H](CO)[C@@H](O)[C@H](O)[C@@H]1O [LIVIDOMYCIN]
IC50 [11]: 30000 µM

CCN[C@@H]1C[C@H](N)[C@@H](O[C@H]2OC(CN)=CC[C@H]2N)[C@H](O)[C@H]1O[C@H]1OC[C@](C)(O)[C@H](NC)[C@H]1O [NETILMICIN]
IC50 [11]: 8000 µM

COc1ccc(C[C@H](N)C(=O)N[C@H]2[C@@H](O)[C@H](n3cnc4c(N(C)C)ncnc43)O[C@@H]2CO)cc1 [PUROMYCIN]
IC50 [9]: 18000 µM

Cc1ccc(C(=O)Nc2ccc(S(=O)(=O)O)c3cc(S(=O)(=O)O)cc(S(=O)(=O)O)c23)cc1NC(=O)c1cccc(NC(=O)Nc2cccc(C(=O)Nc3cc(C(=O)Nc4ccc(S(=O)(=O)O)c5cc(S(=O)(=O)O)cc(S(=O)(=O)O)c45)ccc3C)c2)c1 [SURAMIN]
IC50 [12]: 5 µM
EC50 [1]: 24 µM

C=C(NC(=O)C(=C)NC(=O)c1csc(C2=N[C@@H]3c4csc(n4)[C@H]4NC(=O)c5csc(n5)[C@H]([C@](C)(O)[C@@H](C)O)NC(=O)[C@H]5CSC(=N5)/C(=C/C)NC(=O)[C@H]([C@@H](C)O)NC(=O)c5csc(n5)[C@]3(CC2)NC(=O)[C@H](C)NC(=O)C(=C)NC(=O)[C@H](C)NC(=O)[C@H]([C@@H](C)CC)N[C@@H]2C=Cc3c([C@H](C)O)cc(nc3[C@H]2O)C(=O)O[C@@H]4C)n1)C(N)=O [THIOSTREPTON]
IC50 [9]: 1800 µM
